The values below come from publication PMC8831444 (Cancer Discovery, 2021).

Molecules are shown by their SMILES. Read-outs that look alike come from different tables or passages of the source.

What all share (type): cell-based
The target in test [1] is T1, CDK4 (Homo sapiens, UniProt P11802). Put plainly: palbociclib-based degrader.
Target sequence in this assay (P11802 2-303): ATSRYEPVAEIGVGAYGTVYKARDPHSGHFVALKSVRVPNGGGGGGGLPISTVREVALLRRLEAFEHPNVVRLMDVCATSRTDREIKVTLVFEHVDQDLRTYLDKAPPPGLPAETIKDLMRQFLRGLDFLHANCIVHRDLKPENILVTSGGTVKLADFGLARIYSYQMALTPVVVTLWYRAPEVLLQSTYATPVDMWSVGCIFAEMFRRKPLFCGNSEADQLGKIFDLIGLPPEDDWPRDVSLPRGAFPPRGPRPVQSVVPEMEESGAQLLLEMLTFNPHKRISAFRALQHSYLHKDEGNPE
Test [2] has as its target T2, CDK6 (Homo sapiens, UniProt Q00534). Put plainly: palbociclib-based degrader.
Target sequence in this assay (Q00534 whole entry): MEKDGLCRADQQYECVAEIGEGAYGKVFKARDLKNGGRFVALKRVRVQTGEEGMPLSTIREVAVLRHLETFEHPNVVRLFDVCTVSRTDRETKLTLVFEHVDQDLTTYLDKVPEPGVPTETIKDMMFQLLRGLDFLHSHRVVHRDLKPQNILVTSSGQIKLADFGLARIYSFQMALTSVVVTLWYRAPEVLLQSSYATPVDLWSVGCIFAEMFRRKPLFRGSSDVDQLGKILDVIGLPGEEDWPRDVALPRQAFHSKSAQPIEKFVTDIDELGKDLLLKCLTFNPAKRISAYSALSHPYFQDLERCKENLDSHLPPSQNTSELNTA
Test [3] concerns the target T2, CDK6. Put plainly: palbociclib-based degrader. The source holds these as a separate data set.
Target sequence in this assay (P40337 whole entry): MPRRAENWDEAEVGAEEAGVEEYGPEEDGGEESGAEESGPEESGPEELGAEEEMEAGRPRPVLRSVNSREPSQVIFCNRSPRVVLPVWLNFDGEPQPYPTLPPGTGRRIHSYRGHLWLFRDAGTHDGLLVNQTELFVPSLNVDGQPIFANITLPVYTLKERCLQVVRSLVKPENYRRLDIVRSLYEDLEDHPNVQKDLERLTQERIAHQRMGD
Target sequence in this assay (Q00534 whole entry): as the sequence (Q00534 whole entry) above
The target in test [4] is T1, CDK4. Put plainly: palbociclib-based degrader. This is another data set of the same source.
Target sequence in this assay (P40337 whole entry): as the sequence (P40337 whole entry) above
Target sequence in this assay (P11802 2-303): as the sequence (P11802 2-303) above
Test [5] has as its target T1, CDK4. Put plainly: IP-kinase assay.
Target sequence in this assay (P11802 2-303): as above

Consider `CC(=O)c1c(C)c2cnc(Nc3ccc(N4CCN(CC5CCN(c6ccc7c(c6)C(=O)N(C6CCC(=O)NC6=O)C7=O)CC5)CC4)cn3)nc2n(C2CCCC2)c1=O` (centres unmarked) [BSJ-03-096], for which the “palbociclib-based degrader; CDK4 degradation in MCF7 cells (immunoblot)” value in test [1] is ~ 10 nmol/L. Further, the “palbociclib-based degrader; CDK6 degradation in MCF7 cells (immunoblot)” value in test [2] is ~ 10 nmol/L. `CC(=O)c1c(C)c2cnc(Nc3ccc(N4CCN(CCCCC(=O)N[C@H](C(=O)N5C[C@H](O)C[C@H]5C(=O)N[C@@H](C)c5ccc(-c6scnc6C)cc5)C(C)(C)C)CC4)cn3)nc2n(C2CCCC2)c1=O` [BSJ-05-017]: the “palbociclib-based degrader; CDK6 degradation in MCF7 cells (immunoblot)” value in test [3] is ~ 10 nmol/L. The “palbociclib-based degrader; CDK4 degradation in MCF7 cells (immunoblot)” value in test [4] was ~ 10 nmol/L. Regarding `CCN1CCN(Cc2ccc(Nc3ncc(F)c(-c4cc(F)c5nc(C)n(C(C)C)c5c4)n3)nc2)CC1` [abemaciclib], the “% reduced” value in test [5] stood at 84 % reduced.
